According to patent US8642618B2, “Carbostyril derivatives including cilostazol for treating fatty liver” (Otsuka Pharmaceutical Co., Ltd., priority 2007, dated 2014):

System: Fisher 344 rats fed a choline-deficiented, L-amino acid-defined (CDAA) diet (animal model for fatty liver)
Assay: CDAA diet rat model for fatty liver: liver staining for lipid droplets and serum triglyceride
Assay type: in vivo
Procedure: Fisher 344 rats were fed only a general diet or a choline-deficiented, L-amino acid-defined (CDAA) diet to prepare a control group and a CDAA group as an animal model for fatty liver, respectively. Three medicament-treated groups were prepared by administering the following three medicaments to the CDAA groups every day. (Aspirin and ticlopidine are medicaments having the same platelet aggregation inhibitory action as cilostazol.)
In addition, the amount of triglyceride in the liver as well as the serum level of triglyceride in those rats were measured.

## O=C1CCc2cc(OCCCCc3nnnn3C3CCCCC3)ccc2N1 [cilostazol, 6-[4-(1-cyclohexyl-1H-tetrazol-5-yl)butoxy]-3,4-dihydrocarbostyril]
CDAA diet + 6 mg/kg every day for 6 weeks, compared with CDAA group without cilostazol and with aspirin (5 mg/kg) / ticlopidine (10 mg/kg) groups, FIG. 1-9
  lipid droplet of liver (Hematoxylin-eosin staining and Masson staining): markedly less
CDAA diet + 6 mg/kg every day, 6 weeks after start of administration, compared with control group and other medicaments-treated groups, FIG. 10
  serum level of triglyceride: significantly lower
